# Molecular target: T1, Bcl-2 protein (Recombinant Human Bcl-2 Protein) (Homo sapiens, UniProt P10415)
# T1 construct: purchased Novus Biologicals NBP2-34889
# Assay: AS-MS evaluation of binding of the Example 4 mixture library (1200 compounds/well) to Bcl-2, ASMS ratio (%)
# Conditions: AS-MS, Example 4 mixture library; for ASMS ratio (%) n = 1: Bcl-2, replicate n = 1; for ASMS ratio (%) n = 2: Bcl-2, replicate n = 2
# Procedure, shortened: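 Recombinant human Bcl-2 at 20 μM final was exposed to a 1200-member compound pool (20 nM per compound) in pH 7.4 Tris-HCl buffer containing NaCl, Tween-20 and DTT. After 1 h at 23 °C, protein–ligand complexes passed SEC spin columns; LC/MS signals were compared with protein-free standard and blank samples to give ASMS ratio.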
# T1 sequence (P10415 whole entry): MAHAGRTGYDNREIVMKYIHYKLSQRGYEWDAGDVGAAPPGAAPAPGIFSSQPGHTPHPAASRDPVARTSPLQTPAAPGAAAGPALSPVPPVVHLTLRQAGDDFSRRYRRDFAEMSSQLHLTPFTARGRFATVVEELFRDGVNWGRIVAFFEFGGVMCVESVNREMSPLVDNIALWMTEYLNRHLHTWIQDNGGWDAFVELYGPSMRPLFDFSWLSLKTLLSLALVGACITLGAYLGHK
Compound,ASMS ratio (%) n = 1,ASMS ratio (%) n = 2
"CCOc1cncc(-c2cnn(-c3cc(C(=O)N4CCN(c5ccc(C(=O)NS(=O)(=O)c6ccc(NCCSc7ccccc7)c(C(F)(F)F)c6)cc5)CC4)cc(C(F)(F)F)c3)c2)c1 [Compound B2R044-01, 4-[4-[3-[4-(5-Ethoxypyridin-3-yl)pyrazol-1-yl]-5-(trifluoromethyl)benzoyl]piperazin-1-yl]-N-[4-(2-phenylsulfanylethylamino)-3-(trifluoromethyl)phenyl]sulfonylbenzamide]",−3.7%,−4.1%
"CCOc1cccc(-c2ccccc2CN2CCN(c3ccc(C(=O)NS(=O)(=O)c4ccc(NCCSc5ccccc5)c(C(F)(F)F)c4)cc3)CC2)c1 [Compound B2R045-01, 4-[4-[[2-(3-Ethoxyphenyl)phenyl]methyl]piperazin-1-yl]-N-[4-(2-phenylsulfanylethylamino)-3-(trifluoromethyl)phenyl]sulfonylbenzamide]",4.8%,−3.4%
"CCOc1cccc(-c2ccc(CN3CCN(c4ccc(C(=O)NS(=O)(=O)c5ccc(NCCSc6ccccc6)c(C(F)(F)F)c5)cc4)CC3)c(CC)c2)c1 [Compound B2R049-01, 4-[4-[[4-(3-Ethoxyphenyl)-2-ethylphenyl]methyl]piperazin-1-yl]-N-[4-(2-phenylsulfanylethylamino)-3-(trifluoromethyl)phenyl]sulfonylbenzamide]",7.5%,−5.5%
"CCOc1cccc(-c2ccc(CN3CCN(c4ccc(C(=O)NS(=O)(=O)c5ccc(NCCSc6ccccc6)c(C(F)(F)F)c5)cc4)CC3)c(OC)c2)c1 [Compound B2R053-01, 4-[4-[[4-(3-Ethoxyphenyl)-2-methoxyphenyl]methyl]piperazin-1-yl]-N-[4-(2-phenylsulfanylethylamino)-3-(trifluoromethyl)phenyl]sulfonylbenzamide]",−15.0%,0.0%
"CCOc1cccc(-c2cc(CN3CCN(c4ccc(C(=O)NS(=O)(=O)c5ccc(NCCSc6ccccc6)c(C(F)(F)F)c5)cc4)CC3)cc(OCC)c2)c1 [Compound B2R055-01, 4-[4-[[3-Ethoxy-5-(3-ethoxyphenyl)phenyl]methyl]piperazin-1-yl]-N-[4-(2-phenylsulfanylethylamino)-3-(trifluoromethyl)phenyl]sulfonylbenzamide]",−3.3%,6.3%
"CCOc1cccc(-c2cc(CN3CCN(c4ccc(C(=O)NS(=O)(=O)c5ccc(NCCSc6ccccc6)c(C(F)(F)F)c5)cc4)CC3)cc(OC(C)C)c2)c1 [Compound B2R057-01, 4-[4-[[3-(3-Ethoxyphenyl)-5-propan-2-yloxyphenyl]methyl]piperazin-1-yl]-N-[4-(2-phenylsulfanylethylamino)-3-(trifluoromethyl)phenyl]sulfonylbenzamide]",5.7%,−5.1%
"CCOc1cncc(-c2cc(CN3CCN(c4ccc(C(=O)NS(=O)(=O)c5ccc(NCCSc6ccccc6)c(C(F)(F)F)c5)cc4)CC3)cc(OC(C)C)c2)c1 [Compound B2R058-01, 4-[4-[[3-(5-Ethoxypyridin-3-yl)-5-propan-2-yloxyphenyl]methyl]piperazin-1-yl]-N-[4-(2-phenylsulfanylethylamino)-3-(trifluoromethyl)phenyl]sulfonylbenzamide]",13.0%,4.8%
"CCOc1cccc(-c2cc(OC)c(CN3CCN(c4ccc(C(=O)NS(=O)(=O)c5ccc(NCCSc6ccccc6)c(C(F)(F)F)c5)cc4)CC3)c(OC)c2)c1 [Compound B2R059-01, 4-[4-[[4-(3-Ethoxyphenyl)-2,6-dimethoxyphenyl]methyl]piperazin-1-yl]-N-[4-(2-phenylsulfanylethylamino)-3-(trifluoromethyl)phenyl]sulfonylbenzamide]",0.0%,0.0%
"CCOc1cncc(-c2cc(OC)c(CN3CCN(c4ccc(C(=O)NS(=O)(=O)c5ccc(NCCSc6ccccc6)c(C(F)(F)F)c5)cc4)CC3)c(OC)c2)c1 [Compound B2R060-01, 4-[4-[[4-(5-Ethoxypyridin-3-yl)-2,6-dimethoxyphenyl]methyl]piperazin-1-yl]-N-[4-(2-phenylsulfanylethylamino)-3-(trifluoromethyl)phenyl]sulfonylbenzamide]",3.9%,0.0%
"CCOc1cccc(-c2cc(CN3CCN(c4ccc(C(=O)NS(=O)(=O)c5ccc(NCCSc6ccccc6)c(C(F)(F)F)c5)cc4)CC3)cc(C(F)(F)F)c2)c1 [Compound B2R061-01, 4-[4-[[3-(3-Ethoxyphenyl)-5-(trifluoromethyl)phenyl]methyl]piperazin-1-yl]-N-[4-(2-phenylsulfanylethylamino)-3-(trifluoromethyl)phenyl]sulfonylbenzamide]",9.1%,−6.0%
"CCOc1cccc(-c2cc(CN3CCN(c4ccc(C(=O)NS(=O)(=O)c5ccc(NCCSc6ccccc6)c(C(F)(F)F)c5)cc4)CC3)cc(OC(F)(F)F)c2)c1 [Compound B2R063-01, 4-[4-[[3-(3-Ethoxyphenyl)-5-(trifluoromethoxy)phenyl]methyl]piperazin-1-yl]-N-[4-(2-phenylsulfanylethylamino)-3-(trifluoromethyl)phenyl]sulfonylbenzamide]",8.2%,4.6%

# More lines, now with the values ahead:
ASMS ratio (%) n = 1,ASMS ratio (%) n = 2,Compound
−0.2%,0.0%,"CCOc1cncc(-c2ccccc2CN2CCN(c3ccc(C(=O)NS(=O)(=O)c4ccc(NCCSc5ccccc5)c(C(F)(F)F)c4)cc3)CC2)c1 [Compound B2R046-01, 4-[4-[[2-(5-ethoxypyridin-3-yl)phenyl]methyl]piperazin-1-yl]-N-[4-(2-phenylsulfanylethylamino)-3-(trifluoromethyl)phenyl]sulfonylbenzamide]"
6.6%,−7.8%,"CCOc1cccc(-c2ccc(CN3CCN(c4ccc(C(=O)NS(=O)(=O)c5ccc(NCCSc6ccccc6)c(C(F)(F)F)c5)cc4)CC3)cc2C)c1 [Compound B2R047-01, 4-[4-[[4-(3-Ethoxyphenyl)-3-methylphenyl]methyl]piperazin-1-yl]-N-[4-(2-phenylsulfanylethylamino)-3-(trifluoromethyl)phenyl]sulfonylbenzamide]"
9.2%,7.5%,CCOc1cncc(-c2ccc(CN3CCN(c4ccc(C(=O)NS(=O)(=O)c5ccc(NCCSc6ccccc6)c(C(F)(F)F)c5)cc4)CC3)cc2C)c1 [Compound B2R048-01]
0.0%,0.0%,CCOc1cncc(-c2ccc(CN3CCN(c4ccc(C(=O)NS(=O)(=O)c5ccc(NCCSc6ccccc6)c(C(F)(F)F)c5)cc4)CC3)c(CC)c2)c1 [Compound B2R050-01]
12.7%,−1.8%,"CCOc1cccc(-c2ccc(CN3CCN(c4ccc(C(=O)NS(=O)(=O)c5ccc(NCCSc6ccccc6)c(C(F)(F)F)c5)cc4)CC3)cc2F)c1 [Compound B2R051-01, 4-[4-[[4-(3-Ethoxyphenyl)-3-fluorophenyl]methyl]piperazin-1-yl]-N-[4-(2-phenylsulfanylethylamino)-3-(trifluoromethyl)phenyl]sulfonylbenzamide]"
0.0%,−7.4%,"CCOc1cncc(-c2ccc(CN3CCN(c4ccc(C(=O)NS(=O)(=O)c5ccc(NCCSc6ccccc6)c(C(F)(F)F)c5)cc4)CC3)cc2F)c1 [Compound B2R052-01, 4-[4-[[4-(5-Ethoxypyridin-3-yl)-3-fluorophenyl]methyl]piperazin-1-yl]-N-[4-(2-phenylsulfanylethylamino)-3-(trifluoromethyl)phenyl]sulfonylbenzamide]"
3.3%,−0.8%,"CCOc1cncc(-c2ccc(CN3CCN(c4ccc(C(=O)NS(=O)(=O)c5ccc(NCCSc6ccccc6)c(C(F)(F)F)c5)cc4)CC3)c(OC)c2)c1 [Compound B2R054-01, 4-[4-[[4-(5-Ethoxypyridin-3-yl)-2-methoxyphenyl]methyl]piperazin-1-yl]-N-[4-(2-phenylsulfanylethylamino)-3-(trifluoromethyl)phenyl]sulfonylbenzamide]"
–,−63.9%,"CCOc1cncc(-c2cc(CN3CCN(c4ccc(C(=O)NS(=O)(=O)c5ccc(NCCSc6ccccc6)c(C(F)(F)F)c5)cc4)CC3)cc(OCC)c2)c1 [Compound B2R056-01, 4-[4-[[3-Ethoxy-5-(5-ethoxypyridin-3-yl)phenyl]methyl]piperazin-1-yl]-N-[4-(2-phenylsulfanylethylamino)-3-(trifluoromethyl)phenyl]sulfonylbenzamide]"
0.0%,0.0%,"CCOc1cncc(-c2cc(CN3CCN(c4ccc(C(=O)NS(=O)(=O)c5ccc(NCCSc6ccccc6)c(C(F)(F)F)c5)cc4)CC3)cc(C(F)(F)F)c2)c1 [Compound B2R062-01, 4-[4-[[3-(5-Ethoxypyridin-3-yl)-5-(trifluoromethyl)phenyl]methyl]piperazin-1-yl]-N-[4-(2-phenylsulfanylethylamino)-3-(trifluoromethyl)phenyl]sulfonylbenzamide]"
4.2%,−7.4%,"CCOc1cncc(-c2cc(CN3CCN(c4ccc(C(=O)NS(=O)(=O)c5ccc(NCCSc6ccccc6)c(C(F)(F)F)c5)cc4)CC3)cc(OC(F)(F)F)c2)c1 [Compound B2R064-01, 4-[4-[[3-(5-Ethoxypyridin-3-yl)-5-(trifluoromethoxy)phenyl]methyl]piperazin-1-yl]-N-[4-(2-phenylsulfanylethylamino)-3-(trifluoromethyl)phenyl]sulfonylbenzamide]"

# — patent US20250154686A1, “COMPOUND LIBRARY” (CHUGAI SEIYAKU KABUSHIKI KAISHA, priority 2021, published 2025)
